According to US11083743B2, “DNA hypomethylating agents for cancer therapy” (priority 2013, dated 2021):

What was measured:
TS/A cells [1] = assay: Anti-tumor activity on TS/A tumor grafts in syngeneic BALB/c mice (caliper tumor volume); assay type: in vivo; settings: FIG. 1
Protocol: Primary cultures of murine mammary carcinoma cells TS/A were grown in DMEM Medium supplemented with 10% heat-inactivated FCS (Lonza), 2 mM L-glutamine (Biochrom AG) and 50 μM β-mercaptoethanol. Six-week-old female BALB/c, athymic nude and SCID/Beige mice were obtained from Harlan laboratories (Udine, Italy). Animal care and use were in accordance with Institutional guidelines and the indications of Workman et al. (Workman P, et al. Br J Cancer. 2010 May 25; 102(11): 1555-1577). Mice were sc injected in the flank region with TS/A cells (2×10^5) resuspended in 0.1 ml of physiologic saline. […] Control mice were ip injected with 0.2 ml of saline solution. Animals were weekly monitored for changes in the tumor size or sacrificed by CO2 overdose; for the latter, tumor tissues were surgically removed, and each specimen, divided under sterile conditions, were snap-frozen in liquid nitrogen and stored at −80° C. until used for RNA and DNA extraction. In vivo tolerability was evaluated by measurements of body weight and mortality rate. The antiproliferative activity of the drug was evaluated by caliper measurements of tumor mass. Body weight and tumor size measurements were recorded periodically, all along the treatment. Tumor volumes (TV) were calculated as follows: TV=LD^2/2 (in which L is the longest diameter and D the shortest one).

P1A promoter = assay: qMSP analysis of P1A promoter methylation in excised tumor tissues; assay type: in vivo, murine; settings: FIG. 3; tumors excised one week after end of first cycle (day 8)
Protocol: Mice were sc injected in the flank region with TS/A cells (2×10^5) resuspended in 0.1 ml of physiologic saline. […] Control mice were ip injected with 0.2 ml of saline solution. Animals were weekly monitored for changes in the tumor size or sacrificed by CO2 overdose; for the latter, tumor tissues were surgically removed, and each specimen, divided under sterile conditions, were snap-frozen in liquid nitrogen and stored at -80° C. until used for RNA and DNA extraction. RNA and DNA were extracted from tissues sections, removed from control and treated mice one week after the end of the first cycle treatment (day 8) and homogenized with the aid of Tissue Lyser II (QIAGEN) in Trizol reagent or lysis buffer, respectively. Total RNA was extracted following the manufacturer's instructions and stored at -80° C. Total genomic DNA was extracted by digestion with 100 μg/ml proteinase K in the presence of 0.5% SDS at 50° C. overnight, followed by phenol/chloroform extraction and ethanol precipitation. Genomic DNA was eluted in TE buffer and stored at -20° C. […] Primers for the analysis of the methylation status of […], designed using the free on-line software MethPrimer (Li L C and […] Bioinformatics 2002; 18:1427-31), were: […] (Methylated), forward [NT] ID No. 5), reverse [NT] ID No. 6); […] (Unmethylated), forward [NT] ID No. 7), reverse [NT] ID No. 8). […]

[2] = tested on: murine CTA (P1A, Mage-a family); assay: RT-PCR analysis of murine CTA expression in excised tumor tissues; assay type: in vivo; settings: FIG. 4, tumors excised one week after end of first cycle
Protocol: Mice were sc injected in the flank region with TS/A cells (2×10^5) resuspended in 0.1 ml of physiologic saline. […] Control mice were ip injected with 0.2 ml of saline solution. Animals were weekly monitored for changes in the tumor size or sacrificed by CO2 overdose; for the latter, tumor tissues were surgically removed, and each specimen, divided under sterile conditions, were snap-frozen in liquid nitrogen and stored at -80° C. until used for RNA and DNA extraction. RNA and DNA were extracted from tissues sections, removed from control and treated mice one week after the end of the first cycle treatment (day 8) and homogenized with the aid of Tissue Lyser II (QIAGEN) in Trizol reagent or lysis buffer, respectively. Total RNA was extracted following the manufacturer's instructions and stored at -80° C. Total genomic DNA was extracted by digestion with 100 μg/ml proteinase K in the presence of 0.5% SDS at 50° C. overnight, followed by phenol/chloroform extraction and ethanol precipitation. Genomic DNA was eluted in TE buffer and stored at -20° C. RT-PCR reactions were performed using oligonucleotide primer sequences and PCR amplification programs specific for […] and Mage-a family (Coral S, Covre A et al, Br J Cancer. 2012 Sep. 25; 107(7):1116-24). […]

P1A = assay: Real-time quantitative RT-PCR of P1A expression in excised tumor tissues; assay type: in vivo, murine; settings: FIG. 5; normalized to β-actin
Protocol: Mice were sc injected in the flank region with TS/A cells (2×10^5) resuspended in 0.1 ml of physiologic saline. […] Control mice were ip injected with 0.2 ml of saline solution. Animals were weekly monitored for changes in the tumor size or sacrificed by CO2 overdose; for the latter, tumor tissues were surgically removed, and each specimen, divided under sterile conditions, were snap-frozen in liquid nitrogen and stored at -80° C. until used for RNA and DNA extraction. RNA and DNA were extracted from tissues sections, removed from control and treated mice one week after the end of the first cycle treatment (day 8) and homogenized with the aid of Tissue Lyser II (QIAGEN) in Trizol reagent or lysis buffer, respectively. Total RNA was extracted following the manufacturer's instructions and stored at -80° C. […] Real-time quantitative RT-PCR analyses were performed as previously described (Calabro L, et al., J Cell Physiol 2005; 202:474-7) Briefly, total RNA was digested with RNAse-free DNAse (Roche Diagnostics), to remove contaminating genomic DNA. […] Measurement of gene expression was performed utilizing the ABI prism 7000 Sequence Detection System (Applied Biosystems), as previously described (Calabro L, et al., J Cell Physiol 2005; 202:474-7). cDNA standards were obtained by RT-PCR amplification of the specific mRNAs and quantitated by NanoDrop® ND-1000 UV-Vis Spectrophotometer. […]

TS/A cells [3] = assay: Anti-tumor activity on TS/A tumor grafts in T cell-deficient athymic nude mice; assay type: in vivo; settings: FIG. 6A, first cycle only
Protocol: (§1) Six-week-old female BALB/c, athymic nude and SCID/Beige mice were obtained from Harlan laboratories (Udine, Italy). Animal care and use were in accordance with Institutional guidelines and the indications of Workman et al. (Workman P, et al. Br J Cancer. 2010 May 25; 102(11): 1555-1577).
(§2) Mice were sc injected in the flank region with TS/A cells (2×10^5) resuspended in 0.1 ml of physiologic saline. Animals were examined daily and after a latency period of 1 week, mice bearing clearly palpable and visible tumor grafts (diameter≥0.2 cm) were ip injected with 0.2 ml/injection of i) 15 mg/kg/day of 5-AZA-CdR, three times a day every three hours on days 0 and 7 and on days 42 and 49 for the 2nd cycle of treatment; ii) 100 μg/mouse of anti-CTLA-4 mAb, on days 2, 5 and 8 and on days 44, 47 and 50 for the 2nd cycle of treatment; iii) 100 μg/mouse of anti-PDL-1 mAb on days 2, 5 and 8; iv) combined administration of 5-AZA-CdR and anti-CTLA-4 mAb according to the above reported schedules or; v) combined administration of 5-AZA-CdR and anti-PDL-1 mAb according to the above reported schedules. […] Animals were weekly monitored for changes in the tumor size or sacrificed by CO2 overdose; for the latter, tumor tissues were surgically removed, and each specimen, divided under sterile conditions, were snap-frozen in liquid nitrogen and stored at −80° C. until used for RNA and DNA extraction.

TS/A cells [4] = assay: Anti-tumor activity on TS/A tumor grafts in SCID/Beige mice; assay type: in vivo; settings: FIG. 6B, first cycle only
Protocol: as §1, §2

MHC class I antigens = assay: MHC class I antigen expression on tumours of treated mice; assay type: in vivo
tumour = assay: Histology and immunohistochemistry of surgically-excised tumors from treated mice; assay type: in vivo

Nc1ncn([C@H]2C[C@H](O)[C@@H](CO)O2)c(=O)n1 [5-AZA-CdR, 5-aza-2′-deoxycytidine]
tumor growth inhibition (TS/A cells [1]; day 15, vs control mice): 40.7% | tumor growth inhibition (TS/A cells [1]; day 35, vs control mice): 67.6% | constitutive methylation levels of P1A promoter in cancer tissues vs control mice (P1A promoter): significant (p<0.05) reduction | expression of P1A and Mage-a members in tumor tissues [2]: strong de novo expression | levels of P1A-specific mRNA expression, 5-AZA-CdR alone compared with combination (P1A): similar | tumor growth (TS/A cells [3]): significantly (p<0.05 and p<0.01) reduced tumor growth | tumor growth (TS/A cells [4]): significantly (p<0.05 and p<0.01) reduced tumor growth | constitutive expression of MHC class I antigens on tumours (MHC class I antigens): increases | lymphocyte infiltration into the tumour (tumour): neither induces lymphocyte infiltration | tumour necrosis (tumour): does not induce tumour necrosis
